Test results published in paper PMC10141580, “Cyclic Dichalcogenides Extend the Reach of Bioreductive Prodrugs to Harness Thiol/Disulfide Oxidoreductases: Applications to seco-Duocarmycins Targeting the Thioredoxin System” (ACS Central Science, 2023).
Read-outs that look alike come from different tables or passages of the source.

Experiments:
[1] = tested on: NCI-60 standardized human tumor cell line panel; assay: cells; assay type: cell-based
mouse = assay: Tolerability for repeated dose administration in vivo (summary)
A549 cells = assay: Resazurin cytotoxicity assay, A549, 72 h; conditions: read-out: IC50(nM): A549
Protocol: We used A549 lung cancer and HeLa cervical cancer cell lines for initial screening of the prodrugs.
Fi gure S9: Cell ular resazurin-based cytotoxi ci ty as s a y.
Dose -response curves were calculated from at least 27 incremental single concentrations over a range
of at least three log units. Individual experiments with annotated experiment numbers are shown for each prodrug

[2] = cell line A549/ATCC (LC:A549/ATCC), TMI sheet
[3] = cell line BT-549 (BR:BT-549), TMI sheet
[4] = cell line CCRF-CEM (LE:CCRF-CEM), TMI sheet
[5] = cell line COLO 205 (CO:COLO 205), TMI sheet
[6] = cell line EKVX (LC:EKVX), TMI sheet
[7] = cell line HCC-2998 (CO:HCC-2998), TMI sheet
[8] = cell line HCT-15 (CO:HCT-15), TMI sheet
[9] = cell line HCT-116 (CO:HCT-116), TMI sheet
[10] = cell line HL-60(TB) (LE:HL-60(TB)), TMI sheet
[11] = cell line HOP-62 (LC:HOP-62), TMI sheet
[12] = cell line HOP-92 (LC:HOP-92), TMI sheet
[13] = cell line HT29 (CO:HT29), TMI sheet
[14] = cell line K-562 (LE:K-562), TMI sheet
[15] = cell line KM12 (CO:KM12), TMI sheet
[16] = cell line LOX IMVI (ME:LOX IMVI), TMI sheet
[17] = cell line M14 (ME:M14), TMI sheet
[18] = cell line MALME-3M (ME:MALME-3M), TMI sheet
[19] = cell line MCF7 (BR:MCF7), TMI sheet
[20] = cell line MDA-MB-435 (ME:MDA-MB-435), TMI sheet
[21] = cell line MOLT-4 (LE:MOLT-4), TMI sheet
[22] = cell line NCI-H23 (LC:NCI-H23), TMI sheet
[23] = cell line NCI-H226 (LC:NCI-H226), TMI sheet
[24] = cell line RPMI-8226 (LE:RPMI-8226), TMI sheet
[25] = cell line SF-268 (CNS:SF-268), TMI sheet
[26] = cell line SF-295 (CNS:SF-295), TMI sheet
[27] = cell line SF-539 (CNS:SF-539), TMI sheet
[28] = cell line SK-MEL-5 (ME:SK-MEL-5), TMI sheet
[29] = cell line SK-MEL-28 (ME:SK-MEL-28), TMI sheet
[30] = cell line SNB-19 (CNS:SNB-19), TMI sheet
[31] = cell line SR (LE:SR), TMI sheet
[32] = cell line SW-620 (CO:SW-620), TMI sheet
[33] = cell line T-47D (BR:T-47D), TMI sheet
[34] = cell line U251 (CNS:U251), TMI sheet
[35] = cell line UACC-62 (ME:UACC-62), TMI sheet
[36] = cell line UACC-257 (ME:UACC-257), TMI sheet

In the case of COc1cc2cc(C(=O)N3C[C@@H](CCl)c4c3cc(OC(=O)N(CCC(=O)N3CCN(C)CC3)[C@H]3CCSSC3)c3ccccc43)[nH]c2c(OC)c1OC [P-SS60-CBI-TMI], the GI50 ([1]; UACC-62, read-out: GI50) is reported as 270 nM, the GI50 ([1]; UACC-257, read-out: GI50) is reported as 630 nM and the “NCI-60 screening: Log(GI50)” value [1, 2] is reported as -6.82. For the same compound, the “NCI-60 screening: Log(RedIndex)” value [1, 2] was 1.12, the GI50 ([1]; cell line A549/ATCC (LC:A549/ATCC), TMI sheet, read-out: NCI-60 screening: Raw GI50) was 150 nM and the “NCI-60 screening: Log(GI50)” value [1, 3] was -6.64. The “NCI-60 screening: Log(RedIndex)” value [1, 3] was 0.84, the GI50 ([1]; cell line BT-549 (BR:BT-549), TMI sheet, read-out: NCI-60 screening: Raw GI50) was 230 nM and the “NCI-60 screening: Log(GI50)” value [1, 4] was -6.66. The “NCI-60 screening: Log(RedIndex)” value [1, 4] was 0.66, the GI50 ([1]; cell line CCRF-CEM (LE:CCRF-CEM), TMI sheet, read-out: NCI-60 screening: Raw GI50) was 220 nM and the “NCI-60 screening: Log(GI50)” value [1, 5] was -6.47. For the same compound, the “NCI-60 screening: Log(RedIndex)” value [1, 5] was 0.6, the “NCI-60 screening: Log(GI50)” value [1, 6] was -6.5 and the “NCI-60 screening: Log(RedIndex)” value [1, 6] was 0.79. For the same compound, the “NCI-60 screening: Log(GI50)” value [1, 7] was -6.8, the “NCI-60 screening: Log(RedIndex)” value [1, 7] was 0.98 and the GI50 ([1]; cell line HCC-2998 (CO:HCC-2998), TMI sheet, read-out: NCI-60 screening: Raw GI50) was 160 nM. For the same compound, the “NCI-60 screening: Log(GI50)” value [1, 8] was -6.59, the “NCI-60 screening: Log(RedIndex)” value [1, 8] was 0.82 and the GI50 ([1]; cell line HCT-15 (CO:HCT-15), TMI sheet, read-out: NCI-60 screening: Raw GI50) was 260 nM. The “NCI-60 screening: Log(GI50)” value [1, 9] was -6.8, the “NCI-60 screening: Log(RedIndex)” value [1, 9] was 0.98 and the GI50 ([1]; cell line HCT-116 (CO:HCT-116), TMI sheet, read-out: NCI-60 screening: Raw GI50) was 160 nM. The “NCI-60 screening: Log(GI50)” value [1, 10] was -6.92, the “NCI-60 screening: Log(RedIndex)” value [1, 10] was 0.8 and the “NCI-60 screening: Log(GI50)” value [1, 11] was -6.96. For the same compound, the “NCI-60 screening: Log(RedIndex)” value [1, 11] was 0.73, the “NCI-60 screening: Log(GI50)” value [1, 12] was -6.46 and the “NCI-60 screening: Log(RedIndex)” value [1, 12] was 0.86. The “NCI-60 screening: Log(GI50)” value [1, 13] was -6.57, the “NCI-60 screening: Log(RedIndex)” value [1, 13] was 0.75 and the GI50 ([1]; cell line HT29 (CO:HT29), TMI sheet, read-out: NCI-60 screening: Raw GI50) was 270 nM. For the same compound, the “NCI-60 screening: Log(GI50)” value [1, 14] was -6.79, the “NCI-60 screening: Log(RedIndex)” value [1, 14] was 0.62 and the GI50 ([1]; cell line K-562 (LE:K-562), TMI sheet, read-out: NCI-60 screening: Raw GI50) was 160 nM. The “NCI-60 screening: Log(GI50)” value [1, 15] was -6.57, the “NCI-60 screening: Log(RedIndex)” value [1, 15] was 0.89 and the GI50 ([1]; cell line KM12 (CO:KM12), TMI sheet, read-out: NCI-60 screening: Raw GI50) was 270 nM. For the same compound, the “NCI-60 screening: Log(GI50)” value [1, 16] was -6.68, the “NCI-60 screening: Log(RedIndex)” value [1, 16] was 0.72 and the GI50 ([1]; cell line LOX IMVI (ME:LOX IMVI), TMI sheet, read-out: NCI-60 screening: Raw GI50) was 210 nM. For the same compound, the “NCI-60 screening: Log(GI50)” value [1, 17] was -6.72, the “NCI-60 screening: Log(RedIndex)” value [1, 17] was 0.9 and the GI50 ([1]; cell line M14 (ME:M14), TMI sheet, read-out: NCI-60 screening: Raw GI50) was 190 nM. For the same compound, the “NCI-60 screening: Log(GI50)” value [1, 18] was -6.55, the “NCI-60 screening: Log(RedIndex)” value [1, 18] was 0.75 and the “NCI-60 screening: Log(GI50)” value [1, 19] was -7.45. The “NCI-60 screening: Log(RedIndex)” value [1, 19] was 0.95, the “NCI-60 screening: Log(GI50)” value [1, 20] was -6.67 and the “NCI-60 screening: Log(RedIndex)” value [1, 20] was 0.92. The GI50 ([1]; cell line MDA-MB-435 (ME:MDA-MB-435), TMI sheet, read-out: NCI-60 screening: Raw GI50) was 210 nM, the “NCI-60 screening: Log(GI50)” value [1, 21] was -7.05 and the “NCI-60 screening: Log(RedIndex)” value [1, 21] was 0.82. The “NCI-60 screening: Log(GI50)” value [1, 22] was -7.26, the “NCI-60 screening: Log(RedIndex)” value [1, 22] was 0.93 and the “NCI-60 screening: Log(GI50)” value [1, 23] was -6.36. The “NCI-60 screening: Log(RedIndex)” value [1, 23] was 0.52, the “NCI-60 screening: Log(GI50)” value [1, 24] was -6.65 and the “NCI-60 screening: Log(RedIndex)” value [1, 24] was 0.82. For the same compound, the GI50 ([1]; cell line RPMI-8226 (LE:RPMI-8226), TMI sheet, read-out: NCI-60 screening: Raw GI50) was 220 nM, the “NCI-60 screening: Log(GI50)” value [1, 25] was -6.73 and the “NCI-60 screening: Log(RedIndex)” value [1, 25] was 0.92. The GI50 ([1]; cell line SF-268 (CNS:SF-268), TMI sheet, read-out: NCI-60 screening: Raw GI50) was 190 nM, the “NCI-60 screening: Log(GI50)” value [1, 26] was -6.84 and the “NCI-60 screening: Log(RedIndex)” value [1, 26] was 1.03. For the same compound, the “NCI-60 screening: Log(GI50)” value [1, 27] was -6.78, the “NCI-60 screening: Log(RedIndex)” value [1, 27] was 0.89 and the GI50 ([1]; cell line SF-539 (CNS:SF-539), TMI sheet, read-out: NCI-60 screening: Raw GI50) was 170 nM. The “NCI-60 screening: Log(GI50)” value [1, 28] was -6.78, the “NCI-60 screening: Log(RedIndex)” value [1, 28] was 0.99 and the GI50 ([1]; cell line SK-MEL-5 (ME:SK-MEL-5), TMI sheet, read-out: NCI-60 screening: Raw GI50) was 170 nM. The “NCI-60 screening: Log(GI50)” value [1, 29] was -6.53, the “NCI-60 screening: Log(RedIndex)” value [1, 29] was 1.09 and the GI50 ([1]; cell line SK-MEL-28 (ME:SK-MEL-28), TMI sheet, read-out: NCI-60 screening: Raw GI50) was 290 nM. The “NCI-60 screening: Log(GI50)” value [1, 30] was -6.6, the “NCI-60 screening: Log(RedIndex)” value [1, 30] was 0.94 and the GI50 ([1]; cell line SNB-19 (CNS:SNB-19), TMI sheet, read-out: NCI-60 screening: Raw GI50) was 250 nM. For the same compound, the “NCI-60 screening: Log(GI50)” value [1, 31] was -7.47, the “NCI-60 screening: Log(RedIndex)” value [1, 31] was 0.91 and the “NCI-60 screening: Log(GI50)” value [1, 32] was -6.66. The “NCI-60 screening: Log(RedIndex)” value [1, 32] was 0.93, the GI50 ([1]; cell line SW-620 (CO:SW-620), TMI sheet, read-out: NCI-60 screening: Raw GI50) was 220 nM and the “NCI-60 screening: Log(GI50)” value [1, 33] was -6.16. For the same compound, the “NCI-60 screening: Log(RedIndex)” value [1, 33] was 0.44, the “NCI-60 screening: Log(GI50)” value [1, 34] was -6.79 and the “NCI-60 screening: Log(RedIndex)” value [1, 34] was 0.96. For the same compound, the GI50 ([1]; cell line U251 (CNS:U251), TMI sheet, read-out: NCI-60 screening: Raw GI50) was 160 nM, the “NCI-60 screening: Log(GI50)” value [1, 35] was -6.57 and the “NCI-60 screening: Log(RedIndex)” value [1, 35] was 0.75. The GI50 ([1]; cell line UACC-62 (ME:UACC-62), TMI sheet, read-out: NCI-60 screening: Raw GI50) was 270 nM, the “NCI-60 screening: Log(GI50)” value [1, 36] was -6.2 and the “NCI-60 screening: Log(RedIndex)” value [1, 36] was 0.5. For the same compound, the GI50 ([1]; read-out: NCI-60 screening: Raw GI50) was 230 nM, the remarks (mouse; repeated dose administration) was “well tolerated” and the “well-tolerated dose” value (mouse; weekly or twice-weekly administration) was 3 mg/kg. It also gave an IC50 (A549 cells) of 180 nM.
